Structures can show the parent of a compound that is named as a salt.
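Also: radioligand displacement of a [3H]-labelled ligand from membranes of CHO cells stably expressing human H4 receptor, bound radioactivity counted on filters by liquid scintillation.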

Sequence of human H4 receptor (Q9H3N8 whole entry): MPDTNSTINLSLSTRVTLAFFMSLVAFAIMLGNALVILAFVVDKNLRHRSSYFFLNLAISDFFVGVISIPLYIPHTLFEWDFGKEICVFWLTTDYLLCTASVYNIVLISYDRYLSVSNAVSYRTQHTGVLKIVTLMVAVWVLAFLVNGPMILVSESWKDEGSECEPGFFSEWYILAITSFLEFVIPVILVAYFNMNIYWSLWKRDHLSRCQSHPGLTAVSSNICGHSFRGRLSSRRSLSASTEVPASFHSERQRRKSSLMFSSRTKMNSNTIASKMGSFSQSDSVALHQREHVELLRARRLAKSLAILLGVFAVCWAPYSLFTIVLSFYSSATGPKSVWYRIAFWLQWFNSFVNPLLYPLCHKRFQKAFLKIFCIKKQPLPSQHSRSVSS

This assay has as its target human H4 receptor (Homo sapiens, UniProt Q9H3N8). The assay is described as follows: biochemical.
As for `CN1CCC(OC2c3ccccc3CCn3cc(C=CCC4CCCC4)nc32)CC1` (centres unmarked) [Example 104, 2-(3-cyclopentylpropenyl)-4-(1-methylpiperidin-4-yloxy)-9,10-dihydro-4H-3,10a-diaza-benzo[f]azulene], the Ki (commonly the dissociation constant of the complex between target and ligand, obtained from inhibition or displacement) was less than 30 nM.

On to `CN1CCC(OC2c3ccccc3CCn3cc(C4=CCOCC4)nc32)CC1` (centres unmarked) [Example 106, 2-(3,6-dihydro-2H-pyran-4-yl)-4-(1-methyldpiperidin-4-yloxy)-9,10-dihydro-4H-3,10a-diaza-benzo[f]azulene], for which the Ki was less than 1000 nM.

`CN1CCC(OC2c3cccc(F)c3CCn3cc(-c4ccccc4)nc32)CC1` (centres unmarked) [Example 107, 8-fluoro-4-(1-methylpiperidin-4-yloxy)-2-phenyl-9,10-dihydro-4H-3,10a-diaza-benzo[f]azulene] yielded a Ki of less than 1000 nM.

Regarding `CN1CCC(OC2c3ccccc3CCn3cc(-c4ccc(C(=O)NC5CCC(O)CC5)cc4)nc32)CC1` (centres unmarked) [Example 108, N-(4-hydroxycyclohexyl)-4-[4-(1-methylpiperidin-4-yloxy)-9,10-dihydro-4H-3,10a-diaza-benzo[f]azulen-2-yl]-benzamide], the Ki was less than 1000 nM.

In turn, `CC(C)Cc1cn2c(n1)C(OC1CCN(C)CC1)c1ccccc1CC2` (centres unmarked) [Example 109, 2-isobutyl-4-(1-methylpiperidin-4-yloxy)-9,10-dihydro-4H-3,10a-diaza-benzo[f]azulene oxalate] gave a Ki of less than 300 nM.

The compound `CN1CCC(OC2c3ccccc3CCn3cc(Cc4ccccc4)nc32)CC1` (centres unmarked) [Example 110, 2-benzyl-4-(1-methyl-piperidin-4-yloxy)-9,10-dihydro-4H-3,10a-diaza-benzo[f]azulene oxalate] returned a Ki of less than 300 nM.

With `CN1CCC(OC2c3ccccc3CCn3cc(C=Cc4cccs4)nc32)CC1` (centres unmarked) [Example 111, 4-(1-methylpiperidin-4-yloxy)-2-(2-thiophen-2-ylvinyl)-9,10-dihydro-4H-3,10a-diaza-benzo[f]azulene], the Ki is less than 30 nM.

Regarding `CN(C)Cc1ccc(-c2cn3c(n2)C(OC2CCN(C)CC2)c2ccccc2CC3)cc1` (centres unmarked) [Example 113, dimethyl-{4-[4-(1-methylpiperidin-4-yloxy)-9,10-dihydro-4H-3,10a-diaza-benzo[f]azulen-2-yl]-benzyl}-amine], the Ki is less than 300 nM.

Compound `CN1CCC(OC2c3ccccc3CCn3cc(SC4CCN(C(=O)OC(C)(C)C)CC4)nc32)CC1` (centres unmarked) [Example 114, 4-[4-(1-methylpiperidin-4-yloxy)-9,10-dihydro-4H-3,10a-diaza-benzo[f]azulen-2-ylsulfanyl]-piperidine-1-carboxylic acid tert-butyl ester] registered a Ki of less than 300 nM.

As to `CN1CCC(OC2c3ccccc3CCn3cc(-c4ccc(CNC(=O)OC(C)(C)C)cc4)nc32)CC1` (centres unmarked) [Example 115, {4-[4-(1-methylpiperidin-4-yloxy)-9,10-dihydro-4H-3,10a-diaza-benzo[f]azulen-2-yl]-benzyl}-carbamic acid tert-butyl ester], the Ki was less than 300 nM.

Consider `CCOC(=O)c1c(C)nc2n1CCc1ccccc1C2OC1CCN(C)CC1` (centres unmarked) [Example 116, 2-methyl-4-(1-methylpiperidin-4-yloxy)-9,10-dihydro-4H-3,10a-diazabenzo[f]azulene-1-carboxylic acid ethyl ester], for which the Ki is less than 300 nM.

In the case of `CN1CCC(OC2c3ccccc3CCn3cc(C(C)(C)c4ccc(Cl)cc4)nc32)CC1` (centres unmarked) [Example 117, 2-[1-(4-chlorophenyl)-1-methyl-ethyl]-4-(1-methylpiperidin-4-yloxy)-9,10-dihydro-4H-3,10a-diaza-benzo[f]azulene oxalate], the Ki was less than 300 nM.

`CCOC(=O)c1nc2n(c1C)CCc1ccccc1C2OC1CCN(C)CC1` (centres unmarked) [Example 118, 1-methyl-4-(1-methylpiperidin-4-yloxy)-9,10-dihydro-4H-3,10a-diaza-benzo[f]azulene-2-carboxylic acid ethyl ester] returned a Ki of less than 1000 nM.

As for `Cc1nc2n(c1-c1ccccc1)CCc1ccccc1C2OC1CCN(C)CC1` (centres unmarked) [Example 123, 2-methyl-4-(1-methylpiperidin-4-yloxy)-1-phenyl-9,10-dihydro-4H-3,10a-diaza-benzo[f]azulene oxalate], the Ki is less than 300 nM.

In the case of `CN1CCC(OC2c3ccccc3CCn3cc(C=CCOCc4ccccc4)nc32)CC1` (centres unmarked) [Example 124, 2-(3-benzyloxypropenyl)-4-(1-methylpiperidin-4-yloxy)-9,10-dihydro-4H-3,10a-diaza-benzo[f]azulene oxalate], the Ki was less than 300 nM.

For the compound `CN1CCC(OC2c3ccccc3CCn3cc(CCc4cccs4)nc32)CC1` (centres unmarked) [Example 126, 4-(1-methylpiperidin-4-yloxy)-2-(2-thiophen-2-ylethyl)-9,10-dihydro-4H-3,10a-diaza-benzo[f]azulene oxalate], the Ki is less than 300 nM.

`CN1CCC(OC2c3ccccc3CCn3cc(CCCOCc4ccccc4)nc32)CC1` (centres unmarked) [Example 128, 2-(3-benzyloxypropyl)-4-(1-methylpiperidin-4-yloxy)-9,10-dihydro-4H-3,10a-diaza-benzo[f]azulene oxalate]: the Ki is less than 300 nM.

Compound `Cc1c(-c2ccc(N3CCN(C)C3=O)cc2)nc2n1CCc1ccccc1C2OC1CCN(C)CC1` (centres unmarked) [Example 132, 1-methyl-3-{4-[1-methyl-4-(1-methylpiperidin-4-yloxy)-9,10-dihydro-4H-3,10a-diaza-benzo[f]azulen-2-yl]-phenyl}-imidazolidin-2-one] displayed a Ki of less than 300 nM.

For the compound `CN1CCC(OC2c3ccccc3CCn3cc(-c4ccc(CNC(=O)C(C)(C)C)cc4)nc32)CC1` (centres unmarked) [Example 136, 2,2-dimethyl-N-{4-[4-(1-methylpiperidin-4-yloxy)-9,10-dihydro-4H-3,10a-diaza-benzo[f]azulen-2-yl]-benzyl}-propionamide], the Ki is less than 300 nM.

On to `COCCC(=O)NCc1ccc(-c2cn3c(n2)C(OC2CCN(C)CC2)c2ccccc2CC3)cc1` (centres unmarked) [Example 138, 3-methoxy-N-{4-[4-(1-methylpiperidin-4-yloxy)-9,10-dihydro-4H-3,10a-diaza-benzo[f]azulen-2-yl]-benzyl}-propionamide], for which the inhibition constant Ki was less than 1000 nM.

Consider `CN1CCC(OC2c3ccccc3CCn3c2nc(-c2ccc(NC(=O)OC(C)(C)C)cc2)c3Cl)CC1` (centres unmarked) [Example 141, {4-[1-chloro-4-(1-methylpiperidin-4-yloxy)-9,10-dihydro-4H-3,10a-diaza-benzo[f]azulen-2-yl]-phenyl}-carbamic acid tert-butyl ester], for which the Ki was less than 30 nM.

Compound `Cc1c(-c2ccc(CCS(C)(=O)=O)cc2)nc2n1CCc1ccccc1C2OC1CCN(C)CC1` (centres unmarked) [Example 159, 2-[4-(2-methanesulfonylethyl)-phenyl]-1-methyl-4-(1-methylpiperidin-4-yloxy)-9,10-dihydro-4H-3,10a-diaza-benzo[f]azulene] returned a Ki of less than 30 nM.

For the compound `Cc1c(-c2ccc(SCCNC(=O)OC(C)(C)C)cc2)nc2n1CCc1ccccc1C2OC1CCN(C)CC1` (centres unmarked) [Example 160, (2-{4-[1-methyl-4-(1-methylpiperidin-4-yloxy)-9,10-dihydro-4H-3,10a-diaza-benzo[f]azulen-2-yl]-phenylsulfanyl}-ethyl)-carbamic acid tert-butyl ester oxalate], the Ki is less than 30 nM.

`Cc1c(-c2ccc(N3CCCCC3=O)cc2)nc2n1CCc1ccccc1C2OC1CCN(C)CC1` (centres unmarked) [Example 162, 1-{4-[1-methyl-4-(1-methylpiperidin-4-yloxy)-9,10-dihydro-4H-3,10a-diaza-benzo[f]azulen-2-yl]-phenyl}-piperidin-2-one oxalate] showed a Ki of less than 300 nM.

The compound `COC(=O)CSc1ccc(-c2nc3n(c2C)CCc2ccccc2C3OC2CCN(C)CC2)cc1` (centres unmarked) [Example 165, {4-[1-methyl-4-(1-methylpiperidin-4-yloxy)-9,10-dihydro-4H-3,10a-diaza-benzo[f]azulen-2-yl]-phenylsulfanyl}-acetic acid methyl ester oxalate] gave a Ki of less than 30 nM.

As for `Cc1c(-c2ccc(SC(C)(C)C)cc2)nc2n1CCc1ccccc1C2OC1CCN(C)CC1` (centres unmarked) [Example 166, 2-(4-tert-butylsulfanylphenyl)-1-methyl-4-(1-methylpiperidin-4-yloxy)-9,10-dihydro-4H-3,10a-diaza-benzo[f]azulene oxalate], the Ki is less than 30 nM.

As for `Cc1c(-c2ccc(C3=CCCC3)cc2)nc2n1CCc1ccccc1C2OC1CCN(C)CC1` (centres unmarked) [Example 169, 2-(4-cyclopent-1-enylphenyl)-1-methyl-4-(1-methylpiperidin-4-yloxy)-9,10-dihydro-4H-3,10a-diaza-benzo[f]azulene], the Ki was less than 30 nM.

Regarding `Cc1c(-c2ccc(C3=CCCCC3)cc2)nc2n1CCc1ccccc1C2OC1CCN(C)CC1` (centres unmarked) [Example 170, 2-(4-cyclohex-1-enylphenyl)-1-methyl-4-(1-methylpiperidin-4-yloxy)-9,10-dihydro-4H-3,10a-diaza-benzo[f]azulene], the inhibition constant Ki was less than 30 nM.

`Cc1c(-c2ccc(C3=CCCCCC3)cc2)nc2n1CCc1ccccc1C2OC1CCN(C)CC1` (centres unmarked) [Example 171, 2-(4-cyclohept-1-enylphenyl)-1-methyl-4-(1-methylpiperidin-4-yloxy)-9,10-dihydro-4H-3,10a-diaza-benzo[f]azulene] gave a Ki of less than 30 nM.

`Cc1c(-c2ccc(NC(=O)OC3CCCC3)cc2)nc2n1CCc1ccccc1C2OC1CCN(C)CC1` (centres unmarked) [Example 172, {4-[1-methyl-4-(1-methylpiperidin-4-yloxy)-9,10-dihydro-4H-3,10a-diaza-benzo[f]azulen-2-yl]-phenyl}-carbamic acid cyclopentyl ester] showed a Ki of less than 30 nM.

Regarding `Cc1c(-c2ccc(N)cc2)nc2n1CCc1ccccc1C2OC1CCN(C)CC1` (centres unmarked) [Example 173, 4-[1-methyl-4-(1-methylpiperidin-4-yloxy)-9,10-dihydro-4H-3,10a-diaza-benzo[f]azulen-2-yl]-phenylamine], the Ki is less than 300 nM.

Regarding `Cc1c(-c2ccc(NC(=O)OCC(C)C)cc2)nc2n1CCc1ccccc1C2OC1CCN(C)CC1` (centres unmarked) [Example 174, {4-[1-Methyl-4-(1-methyl-piperidin-4-yloxy)-9,10-dihydro-4H-3,10a-diaza-benzo[f]azulen-2-yl]-phenyl}-carbamic acid isobutyl ester], the Ki is less than 30 nM.

These data come from patent publication US9255101B2 (BIOPROJECT, priority 2012, dated 2016).
